Source: patent USRE48887E1, “RNA interference compositions and methods for malignant tumors” (Nitto Denko Corporation, priority 2014, dated 2022)
d = 2'-deoxy (DNA); m = 2'-O-methyl; r = 2'-OH (RNA); f = 2'-fluoro

Key:
[1] = test system: A549 orthotopic lung cancer tumors; assay: Orthotopic A549 lung cancer mouse model; settings: 2 mg/kg
Experimental: The anti-tumor efficacy of the siRNA formulation against human lung cancer A549 was evaluated by comparing the final primary tumor weights measured at necropsy for the treatment group and the vehicle control group.
For this study, male NCr nu/nu mice, 5-6 weeks old, were used. The experimental animals were maintained in a HEPA filtered environment during the experimental period. The siRNA formulations were stored at 4° C. before use, and warmed to room temperature 10 minutes prior to injection in mouse.
For this A549 human lung cancer orthotopic model, on the day of surgical orthotopic implantation (SOI), the stock tumors were harvested from the subcutaneous site of animals bearing A549 tumor xenograft and placed in RPMI1640 medium. Necrotic tissues were removed and viable tissues were cut into 1.5-2 mm^3 pieces. The animals were anesthetized with isoflurane inhalation and the surgical area was sterilized with iodine and alcohol. A transverse incision approximately 1.5 cm long was made in the left chest wall of the mouse using a pair of surgical scissors. An intercostal incision was made between the third and the fourth rib and the left lung was exposed. One A549 tumor fragment was transplanted to the surface of the lung with an 8-0 surgical suture (nylon). The chest wall was closed with a 6-0 surgical suture (silk). The lung was re-inflated by intrathoracic puncture using a 3 cc syringe with a 25 G×1½ needle to draw out the remaining air in the chest cavity. The chest wall was closed with a 6-0 surgical silk suture.
Three days after tumor implantation, the model tumor-bearing mice were randomly divided into groups of ten mice per group. For the group of interest, treatment of the ten mice was initiated three days after tumor implantation.
For the group of interest, the formulation was (Ionizable lipid: cholesterol:DOPE:DOPC:DPPE-PEG-2K:DSPE-PEG-2K), a liposomal composition. The liposomes encapsulated the GST-π siRNA.
For the study endpoint, the experimental mice were sacrificed forty-two days after treatment initiation. […]

GST-π mRNA = assay: Knockdown of GST-π mRNA in A549 xenograft tumors in vivo; design: species or system mouse
[2] = test system: A549 cancer xenograft tumors; assay: A549 cancer xenograft model, tumor inhibition efficacy; assay type: in vivo, mouse; settings: 0.75 mg/kg IV, two injections (day 1 and 15)
Experimental: For the cancer xenograft model, an A549 cell line was obtained from ATCC. The cells were maintained in culture medium supplemented with 10% Fetal Bovine Serum and 100 U/ml penicillin and 100 μg/ml streptomycin. Cells were split 48 hrs before inoculation so that cells were in log phase growth when harvested. Cells were lightly trypsinized with trypsin-EDTA and harvested from tissue culture. The number of viable cells was counted and determined in a hemocytometer in the presence of trypan blue (only viable cells are counted). The cells were resuspended to a concentration of 5×10^7/ml in media without serum. […]
For tumor volume measurements and randomization, tumor size was measured to the nearest 0.1 mm. Tumor volumes were calculated using the formula: […]. […] Tumor volumes were monitored three times for week 1, twice for the rest of weeks, including the day of study termination. […]
For body weight, mice were weighed to the nearest 0.1 g. Body weights were monitored and recorded daily within 7 days post dosing for first dose. Body weights were monitored and recorded twice for weeks, for the rest of weeks, including the day of study termination.
For tumors collection, on 28 days post first dosing, tumor volume was measured, and tumor was dissected for weight measurement, and stored for PD biomarker study. Tumor weight was recorded. […]

PUMA = PUMA biomarker for apoptosis of cancer cells in vitro (qPCR); assay type: cell-based; settings: from 2-4 days after transfection; siRNA 10 nM
Experimental: The protocol for the PUMA biomarker was as follows. One day before transfection, cells were plated in a 96-well plate at 2×10^3 cells per well with 100 μl of DMEM (HyClone Cat. # SH30243.01) containing 10% FBS and cultured in a 37° C. incubator containing a humidified atmosphere of 5% CO2 in air. Next day, before transfection the medium was replaced with 90 μl of Opti-MEM I Reduced Serum Medium (Life Technologies Cat. #31985-070) containing 2% FBS. Then, 0.2 μl of Lipofectamine RNAiMAX (Life Technologies Cat. #13778-100) were mixed with 4.8 μl of Opti-MEM I for 5 minutes at room temperature. 1 μl of the siRNAs (stock conc. 1 μM) was mixed with 4 μl of Opti-MEM I and combined with the RNAiMAX solution and then mixed gently. The mixture was incubated for 10 minutes at room temperature to allow the RNA-RNAiMAX complexes to form. 10 μl of RNA-RNAiMAX complexes were added per well, to final concentration of the siRNA 10 nM. The cells were incubated for 2 hours and medium changed to fresh Opti-MEM I Reduced Serum Medium containing 2% FBS. […] PUMA (BBC3, Cat# Hs00248075, Life Technologies) mRNA levels were measured by qPCR with TAQMAN.
The protocol for the PUMA biomarker was as follows. […] PUMA (BBC3, Cat#Hs00248075, Life Technologies) mRNA levels were measured by qPCR with TAQMAN.

Row | Substance | final tumor average weights reduced as compared to control ([1]; after 43 days, liposomal formulation, athymic nude mice) [fold] | mean body weight of the mice ([1]; entire experimental period) | other symptoms of toxicity ([1]; entire experimental period) | reduction of GST-π mRNA (GST-π mRNA; 4 mg/kg, single injection, 24 hours after injection) | GST-π mRNA expression (GST-π mRNA; 4 days after injection in a lipid formulation) | tumor volume reduced as compared to control ([2]; after 36 days, liposomal formulation) [fold] | tumor weight reduced ([2]; endpoint day) | expression of PUMA (PUMA)
1 | SEQ ID NOs:61 and 126: GST-π siRNA; sense GAAGCCUUUUGAGACCCUAtt; antisense UAGGGUCUCAAAAGGCUUCag (sense GAAGCCUUUUGAGACCCUATT; antisense UAGGGUCUCAAAAGGCUUCAG; chemistry not given here) | 2.8 | maintained within the normal range | not observed | about 40% | significant reduction | – | – | –
2 | SEQ ID NOs:156 and 182: GST-π siRNA, Table 2; sense GAAGCCUUUUGAGACCCUAUU; antisense fUAGgGuCuCAAAAGGCUUCUU (antisense UAGGGUCUCAAAAGGCUUCUU; sense: sugars from the 5' end mmmrrrrmrmrrrrrrrmmmm, backbone not given here; antisense: sugars from the 5' end frrdrdrdmrmmrrrrmmrmm, backbone and T or U not given here) | – | – | – | – | – | 2 | more than 2 fold | greatly increased
